Common to all, as to assay type: functional
For one assay, the system named is PC-3. Put plainly: Growth inhibition of human PC3 cells assessed as cell growth at 100 uM after 48 hrs by SRB assay. The following applies: PC-3, 48 h, read-out: Activity. In general terms: The SRB assay estimates cell density from bound dye.
Assay [1] has as its system MDA-MB-468. The assay is described as follows: Growth inhibition of human MDA-MB-468 cells assessed as cell growth at 1 mM after 48 hrs by SRB assay. The settings on record: MDA-MB-468, 48 h, read-out: Activity.
The subject of assay [2] is MDA-MB-468. The assay is described as follows: Growth inhibition of human MDA-MB-468 cells assessed as cell growth at 0.1 uM after 48 hrs by SRB assay. The settings on record: MDA-MB-468, 48 h, read-out: Activity.
In assay [3] the test system is MDA-MB-468. The assay is described as follows: Growth inhibition of human MDA-MB-468 cells assessed as cell growth at 100 uM after 48 hrs by SRB assay. The following applies: MDA-MB-468, 48 h, read-out: Activity.
The test system of assay [4] is MDA-MB-468. Put plainly: Growth inhibition of human MDA-MB-468 cells assessed as cell growth at 1 uM after 48 hrs by SRB assay. The following applies: MDA-MB-468, 48 h, read-out: Activity.
A further assay concerns MOLT-4. Put plainly: Growth inhibition of human MOLT4 cells assessed as cell growth at 1 mM after 48 hrs by SRB assay. The following applies: MOLT-4, 48 h, read-out: Activity.
The test system of assay [5] is SK-MEL-28. Put plainly: Growth inhibition of human SK-MEL-28 cells assessed as cell growth at 100 uM after 48 hrs by SRB assay. The settings on record: SK-MEL-28, 48 h, read-out: Activity.
Assay [6] has as its system HL-60(TB). Put plainly: Growth inhibition of human HL-60(TB) cells assessed as cell growth at 100 uM after 48 hrs by SRB assay. The following applies: HL-60, 48 h, read-out: Activity.
The subject of assay [7] is SK-MEL-28. Put plainly: Growth inhibition of human SK-MEL-28 cells assessed as cell growth at 1 uM after 48 hrs by SRB assay. The settings on record: SK-MEL-28, 48 h, read-out: Activity.
For assay [8], the system named is HL-60(TB). The assay is described as follows: Growth inhibition of human HL-60(TB) cells assessed as cell growth at 1 uM after 48 hrs by SRB assay. The following applies: HL-60, 48 h, read-out: Activity.
A further assay relates to K562. The assay is described as follows: Growth inhibition of human K562 cells assessed as cell growth at 100 uM after 48 hrs by SRB assay. The following applies: K562, 48 h, read-out: Activity.
Another assay deals with SW-620. Put plainly: Growth inhibition of human SW620 cells assessed as cell growth at 100 uM after 48 hrs by SRB assay. The settings on record: SW-620, 48 h, read-out: Activity.
For the next assay, the system named is SR. The assay is described as follows: Growth inhibition of human SR cells after 48 hrs by SRB assay.
The mark [9] stands for this setting: read-out: LC50 (the source's name).
Setting [10] is: read-out: pLC50 (the source's name) (converted).

`CNC(=O)NC[C@H]1O[C@@H](n2cnc3c(NC(=O)Nc4ccccc4)ncnc32)[C@H](O[Si](C)(C)C(C)(C)C)[C@@H]1O[Si](C)(C)C(C)(C)C`: the growth at 100 µM in the assay on PC-3 and in the assay with MDA-MB-468 [3] was 6% in each case. In addition, the growth at 1000 µM in the assay on MDA-MB-468 [1] was -35%. Also, the growth at 0.1 µM in the assay on MDA-MB-468 [2] is 101%. For the same compound, in the assay with MDA-MB-468 [4], the growth at 1 µM was determined as 104%.
Take `CCOC(=O)C[C@H]1[C@@H](O[Si](C)(C)C(C)(C)C)[C@H](n2cnc3c(NC(=O)Nc4ccccc4)ncnc32)O[C@@H]1CNC(=O)NC`: the growth at 100 µM is -47% with PC-3; 40% with SK-MEL-28 [5]; -5% in the assay on HL-60(TB) [6]; 19% in the assay on K562; 28% in the assay on SW-620. The growth at 1000 µM in the assay with MOLT-4 is -14%. The growth at 1 µM in the assay with SK-MEL-28 [7] was determined as 106%; with HL-60(TB) [8], 110%. The GI50 with SR (read-out: GI50) is 2.23 µM; in the assay with SR (read-out: pGI50 (converted)), 2.24 µM. Also, the CC50 in the assay on SR (setting [9]) and with SR (setting [10]) was more than 100 µM throughout. For the same compound, the TGI is 7.07 µM in the assay on SR (read-out: TGI) and 7.08 µM with SR (read-out: pTGI (converted)).
Regarding `CNC(=O)NC[C@H]1O[C@@H](n2cnc3c(NC(=O)Nc4ccccc4)ncnc32)[C@H](O[Si](C)(C)C(C)(C)C)[C@@H]1CC(=O)N(C)OC`, in the assay with MOLT-4, the growth at 1000 µM was -5%. For the same compound, the growth at 100 µM with SK-MEL-28 [5] is 44%; in the assay on HL-60(TB) [6] it was -48%; with K562, 17%; in the assay with SW-620, 65%. Further, the figures for the growth at 1 µM in the assay on SK-MEL-28 [7] and in the assay with HL-60(TB) [8] were 106% and 86%, respectively. Also, the values for the GI50 in the assay with SR (read-out: GI50) and in the assay on SR (read-out: pGI50 (converted)) were 1.27 µM and 1.26 µM, respectively. Also, the results for the CC50 with SR (setting [9]) and in the assay with SR (setting [10]) were 9.43 µM and 9.33 µM, respectively. The values for the TGI in the assay on SR (read-out: TGI) and in the assay on SR (read-out: pTGI (converted)) were 3.46 µM and 3.47 µM, respectively.
